Results from patent US20130164814A1, “CONTROL OF ENZYMES IN THE PRODUCTION OF PULP” (KEMIRA OYJ, priority 2010, published 2013).

What was measured:
[1] = tested on: natural catalase; assay: Peroxide concentration in 3% recovered paper pulp with catalase-containing process water; assay type: biochemical, bacteria; settings: for Measured H2O2: 3% pulp, dose SPC 6.7 kg/t or H2O2 2.0 kg/t, + 7 kg/t H2O2 at 0 min
Experimental: The effect of SPC product A was studied with a system consisting of recycled fiber pulp and process water with natural catalase. Pulp for the experiment was produced at a recycled fiber pilot plant pulper. Old magazines and old newspapers (OMG/ONP 50/50) were shredded and repulped using process water from a European recycled fiber plant. in the pilot pulper at 19% consistency for 20 minutes with alkaline soap chemistry without peroxide (NaOH 10 kg/t (100%), water glass 15 kg/t (product), soap 5 kg/t). The pulp was stored in freezer until used. Process water from the recycled fiber pilot plant was used in the experiments for diluting the pulp into 3%.
6.7 kg/t of SPC A was added to the pulp and stirred for 5 minutes. After that, 7 kg/t of 100% peroxide was added (at 0 min in FIG. 2 and Table 3) and the concentration of peroxide in the pulp filtrate was measured against time. The SPC addition brought into the system slightly below 2.0 kg peroxide /ton. Therefore, 2.0 kg of peroxide/t representing a reference sample was added to the pulp and stirred for 5 minutes. Again, after that 7 kg/t of 100% peroxide was added (at 0 min in FIG. 2 and Table 3) and the concentration of peroxide was determined by titration against time from the pulp filtrate.

[2] = tested on: commercial catalase enzyme; assay: Peroxide decomposition in pure water-peroxide-catalase system (titration against time); assay type: biochemical; settings: 100 mg/L SPC
Experimental: (§1) Sodium percarbonate (SPC product E) was tested in a pure distilled water system containing peroxide (210 mg/L), commercial catalase enzyme (1 μL/L) and NaOH to adjust the pH to 9.7 corresponding to the alkaline conditions in a recycled fiber plant. The size of SPC particles comprising NaCO3 coated with Na2SO4 was between 6 and 900 micrometers with maximum 1% >1.6 mm and maximum 2% <0.15 mm. Peroxide decomposition was measured by titration against time. Higher residual peroxide level was obtained with SPC than without any catalase control additive with water-catalase-peroxide system at pH 9.7. Catalase destroyed the 210 mg/I of peroxide very rapidly (FIG. 1, black square). Addition of 100 mg/L of SPC was able to retain the residual peroxide concentration at markedly higher level (triangle). After some initial peroxide degradation, the peroxide level stabilized to ˜80 mg/L. It is known that SPC brings peroxide in the system; this was measured to be 30 mg/L (triangle dotted line). […] Probably catalase enzyme managed to degrade a part of the added peroxide before it was inactivated.

[3] = Effect of SPC on the peroxide titration (SPC without catalase and without added H2O2); assay type: physicochemical; settings: 100 mg/L SPC
Experimental: as §1

SMILES	Measured H2O2 ([1]; 0 min) [kg/t]	Measured H2O2 ([1]; 10 min) [kg/t]	Measured H2O2 ([1]; 30 min) [kg/t]	Measured H2O2 ([1]; 60 min) [kg/t]	Measured benefit: peroxide higher than what only came from SPC ([2]; water-catalase-peroxide system) [mg/L]	Peroxide decomposition compared with an equal amount of added peroxide ([1]; 3% pulp made of recovered paper)	Stabilized peroxide level after initial degradation ([2]; 210 mg/L peroxide, catalase 1 μL/L, pH 9.7) [mg/L]	Peroxide brought into the system by SPC [3] [mg/L]
OO [H2O2, hydrogen peroxide, reference compound]	8.7	6.4	5.8	5.2				
O=C([O-])[O-].O=C([O-])[O-].OO.OO.OO.[Na+].[Na+].[Na+].[Na+] [SPC product E, sodium percarbonate]					50			
O=C([O-])[O-].O=C([O-])[O-].OO.OO.OO.[Na+].[Na+].[Na+].[Na+] [SPC, sodium percarbonate]	8.7	7.9	7.4	7.0		Less peroxide decomposed	~80	30
